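Results reflect a 48-hour exposure of cells in 96-well plates to compound at five concentrations. TGI is the concentration that stops growth completely.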

TGI data for twelve compounds are collected here from PubChem BioAssay (NCI).

Test systems include DLD-1 colon; DMS 114 small cell lung; DMS 273 small cell lung; HOP-18 NSCLC; HOP-92 NSCLC; HT29 colon; IGROV1 ovarian; KM20L2 colon; LXFL 529 NSCLC; M19-MEL melanoma; OVCAR-8 ovarian; RPMI-8226 leukemia; SK-MEL-5 melanoma; SNB-78 CNS; XF 498 CNS; COLO 205 colon; MDA-MB-231 breast.
What all share (assay): inhibition of tumour cell growth, NCI panel, 48 h

For `NCCCCC(=O)c1cccnc1`, the TGI in the assay with DLD-1 colon, in the assay on DMS 114 small cell lung, in the assay with DMS 273 small cell lung, in the assay with HOP-18 NSCLC, in the assay on HOP-92 NSCLC and with HT29 colon was above 100 µM in each case. For the same compound, the TGI in the assay on IGROV1 ovarian, with KM20L2 colon, with LXFL 529 NSCLC, with M19-MEL melanoma, in the assay on OVCAR-8 ovarian and with RPMI-8226 leukemia was above 100 µM in each case. Further, the TGI with SK-MEL-5 melanoma, with SNB-78 CNS and in the assay with XF 498 CNS was above 100 µM in each case.
Consider `O=S(=O)(c1ccccc1)n1cc(C[P+](c2ccccc2)(c2ccccc2)c2ccccc2)c2ccccc21`, for which the TGI in the assay on COLO 205 colon turned out to be 4.78 µM; in the assay with DLD-1 colon, 11 µM; in the assay with DMS 114 small cell lung, 14.4 µM; in the assay on DMS 273 small cell lung it was 10.2 µM; with HOP-92 NSCLC, 5.53 µM; with HT29 colon, 13.4 µM. For the same compound, the TGI was found to be 16 µM with IGROV1 ovarian; 16.6 µM with KM20L2 colon; 8.26 µM in the assay with LXFL 529 NSCLC; 15.9 µM with M19-MEL melanoma; 12.6 µM in the assay on OVCAR-8 ovarian; 18.8 µM with RPMI-8226 leukemia. Also, the TGI in the assay on SK-MEL-5 melanoma amounted to 3.29 µM; in the assay on SNB-78 CNS, 20.7 µM; in the assay on XF 498 CNS it was 12.1 µM.
For `CC1(S)CC2C(CC1Sc1ccccc1)C2(C)C` (centres undefined), the TGI with COLO 205 colon, in the assay on DLD-1 colon, in the assay on DMS 114 small cell lung, with DMS 273 small cell lung, in the assay with HOP-18 NSCLC and in the assay on HOP-92 NSCLC was above 100 µM each time. In addition, the TGI in the assay on HT29 colon, with IGROV1 ovarian, in the assay on LXFL 529 NSCLC, in the assay with M19-MEL melanoma, with OVCAR-8 ovarian and with RPMI-8226 leukemia was above 100 µM in each case. Also, the TGI in the assay with SK-MEL-5 melanoma, with SNB-78 CNS and in the assay with XF 498 CNS was above 100 µM in each case.
With `C[C@@H]1C2=CC[C@@]3(C)C(CCC3[C@H](C)[C@H]3C[C@@]4(C)O[C@@](c5cccnc5)(O3)OC4(C)C)[C@@H]2C2OC2[C@@]12CCC(=O)O2` (some centres undefined), the TGI was 77.2 µM with COLO 205 colon; above 100 µM with DLD-1 colon; above 100 µM in the assay on DMS 114 small cell lung; above 100 µM in the assay with DMS 273 small cell lung; 87.1 µM in the assay with HOP-18 NSCLC; 76.9 µM with HOP-92 NSCLC. The TGI in the assay with HT29 colon was above 100 µM; in the assay on IGROV1 ovarian, above 100 µM; in the assay with KM20L2 colon it was 96.2 µM; in the assay with LXFL 529 NSCLC it was above 100 µM; in the assay on M19-MEL melanoma it was above 100 µM; with OVCAR-8 ovarian, above 100 µM. Also, the TGI in the assay on RPMI-8226 leukemia was above 100 µM; with SK-MEL-5 melanoma, 78.1 µM; in the assay with SNB-78 CNS, above 100 µM.
Regarding `Cc1cc(=O)[nH]c(NNC(C#N)c2c(O)ccc3ccccc23)n1` (centres undefined), the TGI in the assay with COLO 205 colon is 57 µM; with DLD-1 colon, 24.7 µM; in the assay with DMS 114 small cell lung, 5.81 µM; in the assay with DMS 273 small cell lung, 18.7 µM; with HOP-18 NSCLC, above 100 µM; in the assay on HOP-92 NSCLC it was 79.6 µM. For the same compound, the TGI in the assay with HT29 colon was 88.4 µM; in the assay with IGROV1 ovarian, 23.4 µM; in the assay on KM20L2 colon, 95.7 µM; in the assay on LXFL 529 NSCLC, 47 µM; with M19-MEL melanoma, 25 µM; in the assay with OVCAR-8 ovarian it was 68.2 µM. Besides, the TGI in the assay with RPMI-8226 leukemia was 46.5 µM; in the assay on SK-MEL-5 melanoma, 13 µM; with SNB-78 CNS, above 100 µM.
For the compound `CCCCOCc1cc(CN2CCN(C)CC2)c(O)c2ncccc12`, the TGI in the assay on COLO 205 colon is above 100 µM; in the assay with DLD-1 colon, above 100 µM; in the assay on DMS 114 small cell lung it was 23.9 µM; in the assay on DMS 273 small cell lung it was 40.2 µM; in the assay with HOP-18 NSCLC it was 39.9 µM; in the assay on HOP-92 NSCLC it was above 100 µM. The TGI was above 100 µM in the assay on HT29 colon; 97.3 µM with IGROV1 ovarian; 73.7 µM in the assay on KM20L2 colon; above 100 µM in the assay on LXFL 529 NSCLC; above 100 µM in the assay with M19-MEL melanoma; above 100 µM in the assay with OVCAR-8 ovarian. Also, the TGI is 26.3 µM in the assay on RPMI-8226 leukemia, 26.8 µM in the assay with SK-MEL-5 melanoma, above 100 µM in the assay on SNB-78 CNS and above 100 µM with XF 498 CNS.
With `Cc1ccc(C(O)(c2ccc(C)cc2)c2ccccn2)cc1`, the TGI with COLO 205 colon, with DLD-1 colon, with DMS 114 small cell lung, in the assay on DMS 273 small cell lung, with HOP-18 NSCLC and with HT29 colon was above 100 µM throughout. Further, the TGI with IGROV1 ovarian, in the assay on KM20L2 colon, in the assay with M19-MEL melanoma, in the assay on OVCAR-8 ovarian, in the assay with RPMI-8226 leukemia and with SK-MEL-5 melanoma was above 100 µM each time. In the assay on SNB-78 CNS, this compound displayed a TGI above 100 µM.
As for `N#Cc1c(O)c(N=Nc2ccc(Cl)cc2)c(=O)n2c1[nH]c1ccccc12`, the TGI was above 100 µM with COLO 205 colon; 76.9 µM with HOP-92 NSCLC; above 100 µM in the assay on HT29 colon; above 100 µM with IGROV1 ovarian; above 100 µM with MDA-MB-231 breast; above 100 µM in the assay with OVCAR-8 ovarian. The figures for the TGI in the assay with RPMI-8226 leukemia and in the assay on SK-MEL-5 melanoma were 85.5 µM and above 100 µM, respectively.
With `O=C(Cc1nc2ncccc2[nH]c1=O)c1c[nH]c2ccccc12`, the TGI was 31.2 µM in the assay with COLO 205 colon; 38.4 µM in the assay with HOP-92 NSCLC; 60.9 µM with HT29 colon; 39 µM in the assay on IGROV1 ovarian; 35.3 µM with MDA-MB-231 breast; 81.1 µM in the assay on OVCAR-8 ovarian. The TGI in the assay on RPMI-8226 leukemia amounted to 91.8 µM; in the assay on SK-MEL-5 melanoma it was 73 µM.
With `C=C(C)C(O)C(O)C[C@@H](C)C1CC[C@]23C[C@]12CCC1[C@@]2(C)CCC(OC(C)=O)C(C)(C)C2CC(OC2OC(CO)C(O)C(O)C2O)[C@]13C` (some centres undefined), the TGI worked out at 31.5 µM in the assay with COLO 205 colon; 25.7 µM in the assay on HOP-92 NSCLC; 33.6 µM with HT29 colon; 28.8 µM in the assay on IGROV1 ovarian; 28.2 µM with MDA-MB-231 breast; 37.1 µM in the assay with OVCAR-8 ovarian. Further, the results for the TGI in the assay with RPMI-8226 leukemia and in the assay with SK-MEL-5 melanoma were 46.5 µM and 33.1 µM, respectively.
Consider `COC(=O)c1c[nH]c2c1-c1cc(C(=O)OCc3ccccc3)n(S(=O)(=O)c3ccc(C)cc3)c1C(=O)C2=O`, for which the TGI in the assay on COLO 205 colon was found to be 2.08 µM; with HOP-92 NSCLC, 1.29 µM; in the assay on HT29 colon, 0.418 µM; with IGROV1 ovarian, 0.955 µM; in the assay on MDA-MB-231 breast it was 0.401 µM; in the assay on OVCAR-8 ovarian it was 0.927 µM. The TGI in the assay on RPMI-8226 leukemia turned out to be 2.83 µM; in the assay with SK-MEL-5 melanoma, 0.262 µM.
As for `Nc1c(N2CCOCC2)c(=O)nc2[nH]/c(=C\c3ccccc3)c(=O)n12`, the TGI in the assay on COLO 205 colon, in the assay on HOP-92 NSCLC, in the assay on HT29 colon, with IGROV1 ovarian, in the assay on MDA-MB-231 breast and with OVCAR-8 ovarian was above 100 µM in each case. Also, the TGI in the assay with RPMI-8226 leukemia and with SK-MEL-5 melanoma was above 100 µM each time.
